Patent US20040086904A1, “Screening assay for cotranslational translocation interfering compounds” (priority 2001, published 2004)

Target: T1, E-Selectin (Homo sapiens, UniProt P16581)
T1 construct: Full length cDNAs of the adhesion molecules VCAM-1, ICAM-1 and E-Selectin are transcribed and translated; host or cells: cell-free: coupled TNT reticulocyte lysate (Promega) with dog pancreatic microsomes
T1 sequence (P16581 22-610): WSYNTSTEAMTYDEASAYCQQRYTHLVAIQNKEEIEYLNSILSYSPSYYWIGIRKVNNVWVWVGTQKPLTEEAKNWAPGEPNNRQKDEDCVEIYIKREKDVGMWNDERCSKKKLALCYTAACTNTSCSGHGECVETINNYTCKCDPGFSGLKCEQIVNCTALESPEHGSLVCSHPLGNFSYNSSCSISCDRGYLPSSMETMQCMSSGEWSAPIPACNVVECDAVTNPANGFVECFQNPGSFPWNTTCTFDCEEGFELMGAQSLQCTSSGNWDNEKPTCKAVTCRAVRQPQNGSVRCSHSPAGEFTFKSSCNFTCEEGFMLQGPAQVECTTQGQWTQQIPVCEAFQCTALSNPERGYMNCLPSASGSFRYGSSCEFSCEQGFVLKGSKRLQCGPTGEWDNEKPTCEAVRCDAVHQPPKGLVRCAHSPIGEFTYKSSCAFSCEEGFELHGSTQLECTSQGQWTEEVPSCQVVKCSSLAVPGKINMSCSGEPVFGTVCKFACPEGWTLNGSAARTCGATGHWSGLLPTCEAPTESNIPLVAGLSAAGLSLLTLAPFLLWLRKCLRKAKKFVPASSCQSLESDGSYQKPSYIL
Assay: Transient expression of E-Selectin in HEK293 cells, Western blot / immunoblot
Type: cell-based
Conditions: transiently transfected HEK293 cells, 48 hours post-transfection, increasing concentrations
Experimental: The E-Selectin and ICAM-1 expression vectors pCDM8-E-selectin and pCDM8-ICAM-1 allowing transient expression in mammalian cells and cell-free translation are obtained from R&D Systems. VCAM-1 cDNA is obtained by reverse transcription of total RNA from TNF-α stimulated primary human umbilical vein endothelial cells (HUVEC) as follows. After extraction of total RNA with Trizol (GibcoBRL) according to the suppliers recommendations, reverse transcription (RT) PCR on approximately 3 μg total HUVEC RNA is performed using the Advantage High Fidelity PCR kit (CLONTECH) under standard conditions with N- and C-terminal VCAM-1-specific sense and antisense oligonucleotide primers, respectively. Primers are tailed, introducing a Kpnl restriction site 5′ of the Kozak sequence and a Xhol site 3′ of the stop codon. Placental SEAP is amplified accordingly by PCR using plasmid pBC 12/PLAP489 (Berger et al., 1988) as a template and similar tailed SEAP-specific sense and antisense oligonuclotide primers. The SEAP and VCAM-1 cDNAs are isolated and cloned into the pCR2.1 vector (TA cloning kit, Invitrogen). […] Approximately equal molar quantities of each PCR product A and B are phosphorylated and ligated. […]
Protein expression in cells is analyzed by Western blot and subsequent immunoblot analysis. […]

CCCCC(C)CC1NC(=O)C(Cc2cn(OC)c3ccccc23)N(C)C(=O)C(CC(C)C)NC(=O)C(CC(C)C)N(C)C(=O)C(CC(C)CCCC)NC(=O)C(CCC(=O)OCCC)OC(=O)C(C)N(C)C1=O (stereo not shown) [CP]
synthesis of E-Selectin: not-affected
